Source: paper PMC2994747, “Molecular Characterization of c-Abl/c-Src Kinase Inhibitors Targeted against Murine Tumour Progenitor Cells that Express Stem Cell Markers” (PLoS ONE, 2010)

How the values were obtained:
BetaD5 [1] = experiment: Cell cycle analysis by flow cytometry; type: cell-based, mouse; details: IC50 concentration, 96 h
Summary of the method: (§1)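 Cells trypsin-harvested, PBS-washed, stained with CycleTEST PLUS DNA kit (solution A 10 min at room temperature, then solutions B and C, C step at 4°C in dark). DNA content read by flow cytometry on FACScan.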

GammaA3 [2] = experiment: Cell cycle analysis by flow cytometry; type: cell-based, mouse; details: IC50 concentration, 96 h
Summary of the method: as §1

GammaD12 [3] = experiment: Cell cycle analysis by flow cytometry; type: cell-based, mouse; details: IC50 concentration, 96 h
Summary of the method: as §1

A2C12 = experiment: Western blot, semi-quantitative protein expression; type: cell-based, mouse
Description: (§2) For the Western Blot analysis, cells were rinsed and lysed as previously described. An amount of 25 µg protein was used for SDS-PAGE. Antibodies for c-Abl (sc-131), Actin (sc-1616), Cdc2-p34 (sc-8395), EPS15 (sc-1840), FAK (sc-558), c-Fos (sc-52), p38 (sc-7972), p53 (sc-6243) and STAT5 (sc-835x) were obtained from Santa Cruz (Santa Cruz Biotechnology, Heidelberg, Germany), while c-Src (2109) and phospho-Src Y416 (2101) were purchased from Cell Signaling (Cell Signaling Technology, Frankfurt a. M., Germany). The EGFR (06-847), phospho-EGFR Y992 (07-821) and phospho-EGFR Y1045 (04-284) stem from Upstate (Upstate, Schwalbach, Germany) and the hnRNP-K (A300-676A) from Bethyl Labs (Bethyl Laboratories, Montgomery, Texas, USA). Finally p73 (IMG-246) was supplied by Imgenex (Imgenex, Hamburg, Germany). Depending on the primary antibody the secondary antibodies were either horseradish peroxidase-conjugated anti-mouse (AP 160P), anti-rabbit (AP 132P) or anti-sheep (AP 147P) (Chemicon, Schwalbach, Germany).
(§3) Semi-quantitative analysis were carried out with Kodak 1D Image Analysis Software in reference to the vehicle treated control cells (see supplementary table S7).

BetaD5 [4] = experiment: Western blot, semi-quantitative protein expression; type: cell-based, mouse
Description: as §2, §3

GammaA3 [5] = experiment: Western blot, semi-quantitative protein expression; type: cell-based, mouse
Description: as §2, §3

GammaD12 [6] = experiment: Western blot, semi-quantitative protein expression; type: cell-based, mouse
Description: as §2, §3

A549 = experiment: Western blot, semi-quantitative protein expression; type: cell-based, human
Description: as §2, §3

CaCo2 = experiment: Western blot, semi-quantitative protein expression; type: cell-based, human
Description: as §2, §3

Fc1ccccc1CNc1ncnc2c1cnn2CC(Cl)c1ccc(Br)cc1 (centres unmarked) [Si162]
Cells in G1 phase (BetaD5 [1]): 22.8%
Cells in G2 phase (BetaD5 [1]): 42.8%
Cells in S phase (BetaD5 [1]): 34.5%
Cells in G1 phase (GammaA3 [2]): 40.3%
Cells in G2 phase (GammaA3 [2]): 31.5%
Cells in S phase (GammaA3 [2]): 28.1%
Cells in G1 phase (GammaD12 [3]): 24.1%
Cells in G2 phase (GammaD12 [3]): 12.4%
Cells in S phase (GammaD12 [3]): 63.5%
Actin protein expression (A2C12): 99
EGFR Y992-p protein expression (A2C12): 16
EGFR Y1045-p protein expression (A2C12): 0.417
EGFR protein expression (A2C12): 23
EPS15 protein expression (A2C12): 104
FAK protein expression (A2C12): 52
STAT5 protein expression (A2C12): 34
c-Abl protein expression (A2C12): 50
c-Fos protein expression (A2C12): 60
c-Src protein expression (A2C12): 121
hnRNP-K protein expression (A2C12): 60
p38 protein expression (A2C12): 20
p53 protein expression (A2C12): 131
p73 protein expression (A2C12): 40
Actin protein expression (BetaD5 [4]): 91
EGFR Y992-p protein expression (BetaD5 [4]): 145
EGFR Y1045-p protein expression (BetaD5 [4]): 733
EGFR protein expression (BetaD5 [4]): 92
EPS15 protein expression (BetaD5 [4]): 554
FAK protein expression (BetaD5 [4]): 124
STAT5 protein expression (BetaD5 [4]): 182
c-Abl protein expression (BetaD5 [4]): 24
c-Fos protein expression (BetaD5 [4]): 122
c-Src Y416-p protein expression (BetaD5 [4]): 36
c-Src protein expression (BetaD5 [4]): 110
hnRNP-K protein expression (BetaD5 [4]): 20
p38 protein expression (BetaD5 [4]): 39
p53 protein expression (BetaD5 [4]): 443
c-Src autophosphorylation (Tyr416), in words (BetaD5 [4]; IC50 concentration, 96 h): inhibition of c-Src autophosphorylation
Actin protein expression (GammaA3 [5]): 83
EGFR Y992-p protein expression (GammaA3 [5]): 77
EGFR Y1045-p protein expression (GammaA3 [5]): 69
EGFR protein expression (GammaA3 [5]): 1
EPS15 protein expression (GammaA3 [5]): 90
FAK protein expression (GammaA3 [5]): 111
STAT5 protein expression (GammaA3 [5]): 46
c-Abl protein expression (GammaA3 [5]): 1.79
c-Src Y416-p protein expression (GammaA3 [5]): 205
c-Src protein expression (GammaA3 [5]): 21
hnRNP-K protein expression (GammaA3 [5]): 5
p38 protein expression (GammaA3 [5]): 64
p53 protein expression (GammaA3 [5]): 323
Actin protein expression (GammaD12 [6]): 91
EGFR Y992-p protein expression (GammaD12 [6]): 237
EGFR Y1045-p protein expression (GammaD12 [6]): 309
EGFR protein expression (GammaD12 [6]): 65
EPS15 protein expression (GammaD12 [6]): 179
FAK protein expression (GammaD12 [6]): 108
STAT5 protein expression (GammaD12 [6]): 82
c-Abl protein expression (GammaD12 [6]): 195
c-Fos protein expression (GammaD12 [6]): 123
c-Src Y416-p protein expression (GammaD12 [6]): 105
c-Src protein expression (GammaD12 [6]): 56
hnRNP-K protein expression (GammaD12 [6]): 85
p38 protein expression (GammaD12 [6]): 43
p53 protein expression (GammaD12 [6]): 154
Actin protein expression (A549): 62
Cdc2-p34 protein expression (A549): 5.47
EGFR Y1045-p protein expression (A549): 7
EGFR protein expression (A549): 0.418
EPS15 protein expression (A549): 10
FAK protein expression (A549): 46
STAT5 protein expression (A549): 17
c-Abl protein expression (A549): 8.56
c-Fos protein expression (A549): 10
c-Src protein expression (A549): 49
hnRNP-K protein expression (A549): 39
p38 protein expression (A549): 19
p53 protein expression (A549): 48
p73 protein expression (A549): 10
c-Src autophosphorylation (Tyr416), in words (A549; IC50 concentration, 96 h): inhibition of c-Src autophosphorylation
Actin protein expression (CaCo2): 116
Cdc2-p34 protein expression (CaCo2): 43
EGFR Y992-p protein expression (CaCo2): 178
EGFR Y1045-p protein expression (CaCo2): 131
EPS15 protein expression (CaCo2): 42
FAK protein expression (CaCo2): 52
STAT5 protein expression (CaCo2): 69
c-Abl protein expression (CaCo2): 114
c-Fos protein expression (CaCo2): 35
c-Src Y416-p protein expression (CaCo2): 213
c-Src protein expression (CaCo2): 88
hnRNP-K protein expression (CaCo2): 62
p38 protein expression (CaCo2): 29
p53 protein expression (CaCo2): 55
p73 protein expression (CaCo2): 43
